Entries after “also recorded” stand apart in the source; their conditions may differ.
Key:
PML NB = assay type: cell-based, human; settings: 24 hours
[1] = test system: EBV immediate early protein Zta; assay: Zta immunofluorescence in EBV infected A549 cells; assay type: cell-based, Epstein-Barr virus
Method: (§1) A549 cells were plated on 8-chambered Lab-Tek slides at 3×10^4 cells per well; chemical treatment began 24 hours after plating. At specified time points, cells were rinsed twice with PBS and fixed in 4% paraformaldehyde (freshly diluted from 16%, Electron Microscopy Science, Hatfield, Pa.) for 10 min at room temperature. The cells were then rinsed twice with PBS and permeabilized with 0.5% Triton™ X100 (Sigma) in PBS for 15 min at room temperature. Primary antibodies were applied at specified concentrations overnight in a humidified chamber at 4° C. Following 3 rinses in PBS, secondary antibodies were diluted 1:500 and applied for 1 hour at room temperature. The chambers were removed and Vectashield® with DAPI (Vector Laboratories, Burlingame, Calif. #H1200) was applied with cover slip mount. […]
To investigate the ability of ATO to disrupt PML NB in EBV infected A549 cells, cells were treated with varying doses of ATO for 24 hours and PML NBs were imaged. […] To assess whether EBV positivity affected PML protein levels, cell fractions from two separate EBV infections (A549<EBV>2C and A549<EBV>3A) and uninfected parental A549 cells were analyzed by western blot. […] To quantify the increase in Zta expression, mRNA isolated from A549<EBVBX1>3A cells treated with varying doses of ATO for 72 hours was analyzed by qRT-PCR. […]

[2] = test system: EBV immediate early protein Zta; assay: Zta immunofluorescence in CNE1<EBV-BX1> cells; assay type: cell-based, Epstein-Barr virus; settings: 1 nM ATO with or without 40 μM GCV, 3 days
Method: as §1
To more specifically investigate the effects of disruption of PML NB on ZTA expression, siRNA directed against the PML transcript or a control siRNA were transfected into CNE1<BX1> cells. At day 4 post transfection, PML and Zta expression were analyzed using immunofluorescence. […] EBV infected and uninfected parental CNE1 cells were transfected with siRNA against the PML transcript or control siRNA cultured in the presence or absence of 40 μM GCV for 7 days and cells were counted in order to investigate whether disruption of PML NBs using siRNA induced GCV susceptibility. […]

EBV Zta mRNA = assay: qRT-PCR of Zta mRNA in CNE1<EBV-BX1> cells; assay type: cell-based, Epstein-Barr virus
EBV BMRF1 mRNA = assay: qRT-PCR of BMRF1 mRNA in CNE1<EBV-BX1> cells; assay type: cell-based, Epstein-Barr virus
CNE1<EBV BX1> tumors = assay: CNE1<EBV BX1> nasopharyngeal carcinoma xenograft, tumor volume; assay type: in vivo, male nude mice; settings: 21 days of once daily treatment; GCV 100 μg/g, ATO 100 ng/g; carrier control just under double
[3] = test system: MUTU1 cells (EBV positive Burkitt's lymphoma-derived); assay: Viable cell count (trypan blue exclusion), MUTU1 cells; assay type: cell-based, human; settings: 10 nM or 100 nM ATO, 2 and 3 days
EBV Zta = assay: Western blot of Zta in MUTU1 cells; assay type: cell-based, Epstein-Barr virus; settings: 0, 10 nM, 100 nM ATO, day 3
LCL<EBV1-13> cells = assay type: cell-based, human; settings: 45 μM GCV, 1.0 nM ATO
[4] = 4 days, 1 nM ATO and/or 40 μM GCV

Sequence of PML NB (P29590 1-418 limits assumed): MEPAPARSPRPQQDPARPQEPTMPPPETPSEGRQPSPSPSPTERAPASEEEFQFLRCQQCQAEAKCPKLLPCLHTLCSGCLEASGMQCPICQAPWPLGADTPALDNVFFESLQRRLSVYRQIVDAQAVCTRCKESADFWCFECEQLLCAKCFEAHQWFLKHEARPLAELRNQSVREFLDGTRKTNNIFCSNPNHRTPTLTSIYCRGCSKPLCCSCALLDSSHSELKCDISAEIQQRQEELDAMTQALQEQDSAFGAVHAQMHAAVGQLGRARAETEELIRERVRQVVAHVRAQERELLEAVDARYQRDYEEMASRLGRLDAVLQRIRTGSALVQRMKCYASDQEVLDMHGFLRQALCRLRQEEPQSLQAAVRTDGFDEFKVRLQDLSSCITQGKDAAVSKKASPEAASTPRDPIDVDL

Substance: arsenic trioxide [ATO]
- PML NB immunofluorescence signal (PML NB; 12.5 nM ATO): complete loss; also recorded: below that of baseline untreated uninfected cells
- ATO concentration resulting in reduction of PML NB size, number and fluorescent intensity (PML NB; EBV infected A549 cells, 'as low as'): 6.25 nM
- PML NB immunofluorescence intensity, dose response (PML NB; varying doses of ATO): diminished by exposure to ATO in a dose dependent manner
- cells staining positively for Zta ([1]; day 8, 10 nM ATO plus or minus GCV): 100%
- number of Zta positive cells, dose response ([1]; varying doses of ATO, 72 hours (3 days), two separate EBV infections of A549 cells): increase in the number of Zta positive cells in an ATO dose responsive manner; also recorded: increases the number of Zta positive cells in a dose dependent manner
- number of Zta positive cells [2]: increased the number of cells that were Zta positive
- ATO dose inducing upregulation of ZTA mRNA (EBV Zta mRNA; 48 hours, 'as low as'): 1.25 nM
- Zta mRNA expression compared to control (EBV Zta mRNA; [4]): increased
- ATO dose inducing upregulation of BMRF1 mRNA (EBV BMRF1 mRNA; 48 hours, 'as low as', to a lesser extent than ZTA): 1.25 nM
- BMRF1 mRNA expression compared to control (EBV BMRF1 mRNA; [4]): increased
- tumor size increase over size at day 7 (pre-treatment) (CNE1<EBV BX1> tumors): approximately 10%
- cell viability, EBV positive MUTU cells [3]: dose and time dependent suppression of cell viability
- Zta expression (Western blot), EBV positive MUTU cells (EBV Zta): markedly enhanced reactivation of the EBV lytic cycle; also recorded: show Zta expression
- viable cells after a third day of treatment compared with two days (LCL<EBV1-13> cells): barely changed

Source: patent publication US20140017336A1, “CO-ADMINISTRATION OF ARSENIC COMPOUNDS AND ANTI-HERPES VIRUS ANTI-VIRALS” (priority 2011, published 2014)
